# Reference: patent US6740679B1, “Nutritional supplement or pharmaceutical preparation comprising triglycerides with seven-carbon fatty acid” (Baylor University Medical Center, priority 1999, dated 2004)
# Entries after “also recorded” stand apart in the source; their conditions may differ.
# Assays:
# [1] = tested on: fibroblasts with severe carnitine/acylcarnitine translocase deficiency (TRANSLOCASE); assay: Tandem mass spectrometry assay of labeled fatty acid oxidation in cultured cells; format: cell-based, human; conditions: translocase-deficient fibroblasts; for accumulation of labeled acylcarnitine of the precursor: m/z417 for D3-C16, m/z305 for D3-C8, m/z319 for D3-C9
# Method: (§1) Fibroblasts taken from the deceased sibling and amniocytes taken from the fetus were both evaluated for fatty acid metabolism of n-heptanoic acid (C7) using a tandem mass spectrometry assay previously reported. (Yang, et al. 1998. “Identification of four novel mutations in patients with carnitine palmitoyltransferase II (CPT II) deficiency,” Mol Genet Metab 64:229-236). […] Each cell line was incubated separately with 7-^2H3-heptanoate (D3-C7), 8-^2H3-octanoate (D3-C8), 9-^2H3-nonanoate (D3-C9), and 16-^2H3-palmitate (D3-C16).
# (§2) The normal cell line and eleven abnormal cell lines were analyzed in groups of three. For quantitative purposes, labeled internal standards were included in each analysis and are designated as “IS” on the first profile in each group. The mass numbers for these standards are: m/z420 (^2H6-palmitate-C16), m/z308 (^2H6-octanoate-C8), m/z269 (^2H9-isovaleric-C5) , and m/z237 (^2H5-propionate-C3), wherein m/z is the mass:charge ratio.
# (§3) This relative ammount of m/z235 (^2H3-propionate-C3) is compared to the level of the internal standards at m/z269 (^2H9-isovaleric-C5) and m/z237 (^2H5-propionate-C3).
# [2] = tested on: VLCAD-H (hypoglycemic form of very-long-chain acyl-CoA dehydrogenase) deficient fibroblasts; assay: Tandem mass spectrometry assay of labeled fatty acid oxidation; format: cell-based, human
# Method: as §1, §2, §3
# [3] = tested on: short-chain acyl-CoA dehydrogenase (SCAD) deficient fibroblasts; assay: as above; format: cell-based, human
# Method: as §1, §2, §3
# [4] = tested on: VLCAD-C (cardiac form of very-long-chain acyl-CoA dehydrogenase) deficient fibroblasts; assay: as above; format: cell-based, human
# Method: as §1, §2, §3
# [5] = tested on: long-chain L-3-hydroxy-acyl-CoA dehydrogenase (LCHAD) deficient fibroblasts; assay: as above; format: cell-based, human
# Method: as §1, §2, §3
# [6] = tested on: mitochondrial trifunctional protein (TRIFUNCTIONAL) deficient fibroblasts; assay: as above; format: cell-based, human
# Method: as §1, §2, §3
# [7] = tested on: electron transfer flavoprotein QO dehydrogenase-severe (ETF-DH severe) deficient fibroblasts; assay: as above; format: cell-based, human
# Method: as §1, §2, §3
# [8] = tested on: medium-chain acyl-CoA dehydrogenase (MCAD) deficient fibroblasts; assay: as above; format: cell-based, human; conditions: for accumulation of labeled acylcarnitine: C8 m/z305.3 from D3-C16, m/z305 for D3-C8, m/z291 heptanoylcarnitine for D3-C7
# Method: as §1, §2, §3
# [9] = tested on: carnitine palmitoyltransferase I (CPT I) deficient fibroblasts; assay: as above; format: cell-based, human
# Method: as §1, §2, §3
# [10] = tested on: carnitine palmitoyltransferase II (CPT II) deficient fibroblasts; assay: as above; format: cell-based, human; conditions: for accumulation of labeled acylcarnitine of the precursor: m/z417 for D3-C16, m/z319 for D3-C9
# Method: as §1, §2, §3
# [11] = tested on: electron transfer flavoprotein QO dehydrogenase-mild (ETF-DH mild) deficient fibroblasts; assay: as above; format: cell-based, human
# Method: as §1, §2, §3
# normal fibroblasts = assay: as above; format: cell-based, human
# Excerpt: Fibroblasts taken from the deceased sibling and amniocytes taken from the fetus were both evaluated for fatty acid metabolism of n-heptanoic acid (C7) using a tandem mass spectrometry assay previously reported. (Yang, et al. 1998. “Identification of four novel mutations in patients with carnitine palmitoyltransferase II (CPT II) deficiency,” Mol Genet Metab 64:229-236). The mass spectrometry results are presented for palmitate in FIG. 3A and triheptanoin in FIG. 3B for the fibroblasts taken from the deceased sibling, and for palmitate in FIG. 4A and triheptanoin in FIG. 4B for the amniocytes taken from the fetus. […]
# The normal cell line and eleven abnormal cell lines were analyzed in groups of three. For quantitative purposes, labeled internal standards were included in each analysis and are designated as “IS” on the first profile in each group. […]
# [12] = tested on: amniocytes from a fetus with severe translocase deficiency; assay: Tandem mass spectrometry assay of fatty acid oxidation in amniocytes; format: cell-based, human; conditions: translocase-deficient amniocytes
# Excerpt: Because a sibling had died at the age of four days from severe translocase deficiency, amniocytes obtained from a fetus were examined for competency in fatty acid metabolism. […] Fibroblasts taken from the deceased sibling and amniocytes taken from the fetus were both evaluated for fatty acid metabolism of n-heptanoic acid (C7) using a tandem mass spectrometry assay previously reported. (Yang, et al. 1998. “Identification of four novel mutations in patients with carnitine palmitoyltransferase II (CPT II) deficiency,” Mol Genet Metab 64:229-236). […]
# fasting rats = conditions: rats fed the triglyceride; Anderson et al. 1975; cited from earlier work
smiles,measurement,setting,value
"[2H]C([2H])([2H])CCCCCC(=O)O [D3-C7, 7-^2H3-heptanoate]",relative amount of 2H3-propionate-C3 (m/z235) produced,[1]; compared to normal cells,either comparable to or in excess of the amount seen in normal cells
same,relative amount of 2H3-propionate-C3 (m/z235) produced,[2]; compared to normal cells,either comparable to or in excess of the amount seen in normal cells
same,relative amount of 2H3-propionate-C3 (m/z235) produced,[3]; compared to normal cells,either comparable to or in excess of the amount seen in normal cells
same,relative amount of 2H3-propionate-C3 (m/z235) produced,[4]; compared to normal cells,either comparable to or in excess of the amount seen in normal cells
same,relative amount of 2H3-propionate-C3 (m/z235) produced,[5]; compared to normal cells,either comparable to or in excess of the amount seen in normal cells
same,relative amount of 2H3-propionate-C3 (m/z235) produced,[6]; compared to normal cells,either comparable to or in excess of the amount seen in normal cells
same,oxidation of the fatty acid (labeled acylcarnitine profile),[7],no oxidation of labeled 7-^2H3-heptanoate was observed
same,accumulation of labeled acylcarnitine,[8],markedly increased
same,relative amount of 2H3-propionate-C3 (m/z235) produced,[9]; compared to normal cells,either comparable to or in excess of the amount seen in normal cells
same,relative amount of 2H3-propionate-C3 (m/z235) produced,[10]; compared to normal cells,either comparable to or in excess of the amount seen in normal cells
same,oxidation of the fatty acid (labeled acylcarnitine profile),[11],no oxidation of labeled 7-^2H3-heptanoate was observed
"[2H]C([2H])([2H])CCCCCCC(=O)O [D3-C8, 8-^2H3-octanoate]",accumulation of labeled acylcarnitine of the precursor,[1],relative accumulation of m/z 305
same,accumulation of labeled acylcarnitine,[8],relative accumulation of m/z 305
"[2H]C([2H])([2H])CCCCCCCC(=O)O [D3-C9, 9-^2H3-nonanoate]",accumulation of labeled acylcarnitine of the precursor,[1],an increase was observed at m/z319
same,accumulation of labeled acylcarnitine of the precursor,[5]; m/z319 for D3-C9,an increase was observed at m/z319
same,accumulation of labeled acylcarnitine of the precursor,[10],an increase was observed at m/z319
"[2H]C([2H])([2H])CCCCCCCCCCCCCCC(=O)O [D3-C16, 16-^2H3-palmitate]",profile of labeled acylcarnitine intermediates,normal fibroblasts,from C16 down to and including C4
same,oxidation of the fatty acid (labeled acylcarnitine profile),[1],no oxidation occurs
same,accumulation of labeled acylcarnitine of the precursor,[1],large quantities of labeled palmitoylcarnitine
same,profile of labeled acylcarnitines,[2],abnormal profiles of labeled acylcarnitines
same,oxidation of the fatty acid (labeled acylcarnitine profile),[3],oxidation stops at m/z249
same,profile of labeled acylcarnitines,[4],abnormal profiles of labeled acylcarnitines
same,profile of labeled acylcarnitines,[5],abnormal profiles of labeled acylcarnitines
same,profile of labeled acylcarnitines,[6],abnormal profiles of labeled acylcarnitines
same,oxidation of the fatty acid (labeled acylcarnitine profile),[7],abnormal profiles of labeled acylcarnitines
same,oxidation of the fatty acid (labeled acylcarnitine profile),[8],oxidation clearly proceed down to the level of C8
same,accumulation of labeled acylcarnitine,[8],marked accumulation
same,amount of labeled palmitoylcarnitine (m/z417),[9],minimal amount
same,oxidation of the fatty acid (labeled acylcarnitine profile),[9],virtually no oxidation occurs
same,oxidation of the fatty acid (labeled acylcarnitine profile),[10],no oxidation occurs
same,accumulation of labeled acylcarnitine of the precursor,[10],large quantities of labeled palmitoylcarnitine
same,oxidation of the fatty acid (labeled acylcarnitine profile),[11],abnormal profiles of labeled acylcarnitines
CCCCCCC(=O)O [n-heptanoic acid],oxidation of the fatty acid (labeled acylcarnitine profile),[1],successful oxidation; also recorded: readily oxidized to propionyl-CoA
same,oxidation of the fatty acid,[12],readily oxidized to propionyl-CoA
CCCCCCCCCCC(=O)OCC(COC(=O)CCCCCCCCCC)OC(=O)CCCCCCCCCC [triundecanoin],blood glucose levels during prolonged fasting,fasting rats,maintain nonfasting blood glucose levels during prolonged fasting
